# How the values were obtained:
# [1] = system: WM266.4 human melanoma cell line; assay: Anti-proliferation assay (MTT); format: cell-based; settings: WM 266-4, WM266.4 human melanoma cell growth, 24 h
# Protocol: WM266.4 melanoma cells were cultured in DMEM/10% fetal bovine serum, in 5% CO2 water saturated atmosphere at 37°C. Cell suspensions (10000/mL) were prepared and 100 µL/well dispensed into 96-well plates (Costar) giving 1000 cells/well. The plates were returned to the incubator for 24h to allow the cells to reattach. These compounds were initially prepared at 20mM in DMSO. Aliquots (200 µL) were diluted into 20mL culture medium giving 200 µM, and 10 serial dilutions of 3x prepared. Aliquots (100 µL) of each dilution were added to the wells, giving doses ranging from 100 µM to 0.005 µM. After a further incubated at 37°C for 24h in a humidified atmosphere with 5% CO2, the cell viability was assessed by the conventional 3-(4,5-dimethylthiazol-2-yl)-2,5-diphenyltetrazolium bromide (MTT) reduction assay and carried out strictly according to the manufacturer instructions (Sigma). The absorbance at 590nm was recorded using LX300 Epson Diagnostic micro-plate reader. Then GI50 was calculated using SPSS 13.0 software.
# [2] = biological target: B-Raf^V600E; assay: V600E mutant B-Raf kinase inhibitory assay (B-Raf^V600E mediated MEK phosphorylation)
# B-Raf^V600E, sequence (P28028 whole entry V585E): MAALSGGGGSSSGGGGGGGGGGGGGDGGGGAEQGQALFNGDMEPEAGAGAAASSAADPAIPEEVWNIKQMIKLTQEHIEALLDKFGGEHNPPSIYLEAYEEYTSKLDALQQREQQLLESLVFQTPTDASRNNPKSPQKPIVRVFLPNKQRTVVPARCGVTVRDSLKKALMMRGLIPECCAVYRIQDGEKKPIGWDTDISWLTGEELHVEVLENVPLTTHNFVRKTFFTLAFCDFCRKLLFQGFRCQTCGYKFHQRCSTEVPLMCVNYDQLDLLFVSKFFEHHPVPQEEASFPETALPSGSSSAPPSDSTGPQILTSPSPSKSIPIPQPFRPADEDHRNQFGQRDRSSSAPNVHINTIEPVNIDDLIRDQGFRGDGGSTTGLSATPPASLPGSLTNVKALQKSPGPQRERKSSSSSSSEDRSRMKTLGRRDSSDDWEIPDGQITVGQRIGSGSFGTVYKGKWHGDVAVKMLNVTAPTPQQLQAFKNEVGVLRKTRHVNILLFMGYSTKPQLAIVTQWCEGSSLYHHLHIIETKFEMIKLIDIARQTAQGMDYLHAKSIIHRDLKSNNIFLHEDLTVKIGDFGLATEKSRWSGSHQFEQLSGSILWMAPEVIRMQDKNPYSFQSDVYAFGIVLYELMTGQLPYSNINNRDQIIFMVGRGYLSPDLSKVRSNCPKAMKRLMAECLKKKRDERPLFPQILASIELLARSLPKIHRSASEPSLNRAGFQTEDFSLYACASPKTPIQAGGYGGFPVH
# Protocol: Briefly, 7.5 ng Mouse Full-Length GST-tagged BRAF^V600E (Invitrogen, PV3849) was preincubated at room temperature for 1 h with 1 µL drug and 4 µL assay dilution buffer. The kinase assay was initiated when 5 µL of a solution containing 200 ng recombinant human full length, N-terminal His-tagged MEK1 (Invitrogen), 200 µM ATP, and 30 mM MgCl2 in assay dilution buffer was added. The kinase reaction was allowed to continue at room temperature for 25 min and was then quenched with 5 µL 5x protein denaturing buffer (LDS) solution. Protein was further denatured by heating for 5 min at 70°C. 10 µL of each reaction was loaded into a 15-well, 4–12% precast NuPage gel (Invitrogen) and run at 200 V, and upon completion, the front, which contained excess hot ATP, was cut from the gel and discarded. The gel was then dried and developed onto a phosphor screen.
GI50 [1] [nM],melting point [°C],IC50 [2] [nM],SMILES
3760 ± 320,37 to 39,2260 ± 190,"Oc1c(Cl)cc(Cl)cc1C1CC(c2ccc(F)cc2)=NN1c1ccccc1 (centres unmarked) [Compound C19, 2,4-dichloro-6-(3-(4-fluorophenyl)-1-phenyl-4,5-dihydro-1H-pyrazol-5-yl)phenol]"
4390 ± 310,68 to 71,2660 ± 190,"Oc1ccc(Cl)cc1C1CC(c2ccc(Cl)cc2)=NN1c1ccccc1 (centres unmarked) [Compound C8, 4-chloro-2-(3-(4-chlorophenyl)-1-phenyl-4,5-dihydro-1H-pyrazol-5-yl)phenol]"
3690 ± 320,88 to 91,2200 ± 200,"Oc1ccc(Br)cc1C1CC(c2ccc(Cl)cc2)=NN1c1ccccc1 (centres unmarked) [Compound C14, 4-bromo-2-(3-(4-chlorophenyl)-1-phenyl-4,5-dihydro-1H-pyrazol-5-yl)phenol]"
1980 ± 170,35 to 37,510 ± 50,"COc1ccc(C2=NN(c3ccccc3)C(c3ccccc3O)C2)cc1 (centres unmarked) [Compound C5, 2-(3-(4-methoxyphenyl)-1-phenyl-4,5-dihydro-1H-pyrazol-5-yl)phenol]"
4450 ± 410,73 to 76,2730 ± 190,"Oc1ccc(Br)cc1C1CC(c2ccc(F)cc2)=NN1c1ccccc1 (centres unmarked) [Compound C13, 4-bromo-2-(3-(4-fluorophenyl)-1-phenyl-4,5-dihydro-1H-pyrazol-5-yl)phenol]"
2430 ± 160,49 to 51,1070 ± 80,"COc1ccc(C2=NN(c3ccccc3)C(c3cc(Cl)ccc3O)C2)cc1 (centres unmarked) [Compound C11, 4-chloro-2-(3-(4-methoxyphenyl)-1-phenyl-4,5-dihydro-1H-pyrazol-5-yl)phenol]"
1750 ± 120,57 to 59,150 ± 10,"Oc1ccccc1C1CC(c2ccc(Cl)c(Cl)c2)=NN1c1ccccc1 (centres unmarked) [Compound C6, 2-(3-(3,4-dichlorophenyl)-1-phenyl-4,5-dihydro-1H-pyrazol-5-yl)phenol]"
2850 ± 230,32 to 34,1490 ± 110,"Cc1ccc(C2=NN(c3ccccc3)C(c3ccccc3O)C2)cc1 (centres unmarked) [Compound C4, 2-(1-phenyl-3-(p-tolyl)-4,5-dihydro-1H-pyrazol-5-yl)phenol]"
4260 ± 360,60 to 63,2600 ± 230,"Oc1ccc(Cl)cc1C1CC(c2ccc(F)cc2)=NN1c1ccccc1 (centres unmarked) [Compound C7, 4-chloro-2-(3-(4-fluorophenyl)-1-phenyl-4,5-dihydro-1H-pyrazol-5-yl)phenol]"
5130 ± 490,56 to 59,3120 ± 260,"Oc1c(Cl)cc(Cl)cc1C1CC(c2ccc(Br)cc2)=NN1c1ccccc1 (centres unmarked) [Compound C21, 2-(3-(4-bromophenyl)-1-phenyl-4,5-dihydro-1H-pyrazol-5-yl)-4,6-dichlorophenol]"
210 ± 20,–,–,"CCCS(=O)(=O)Nc1ccc(F)c(C(=O)c2c[nH]c3ncc(-c4ccc(Cl)cc4)cc23)c1F [Vemurafenib, reference compound]"
2650 ± 190,104 to 106,1290 ± 100,"Oc1ccc(Br)cc1C1CC(c2ccc(Br)cc2)=NN1c1ccccc1 (centres unmarked) [Compound C15, 4-bromo-2-(3-(4-bromophenyl)-1-phenyl-4,5-dihydro-1H-pyrazol-5-yl)phenol]"
2730 ± 210,90 to 93,1370 ± 130,"Oc1ccc(Cl)cc1C1CC(c2ccc(Br)cc2)=NN1c1ccccc1 (centres unmarked) [Compound C9, 2-(3-(4-bromophenyl)-1-phenyl-4,5-dihydro-1H-pyrazol-5-yl)-4-chlorophenol]"
2380 ± 230,33 to 34,1010 ± 80,"COc1ccc(C2=NN(c3ccccc3)C(c3cc(Cl)cc(Cl)c3O)C2)cc1 (centres unmarked) [Compound C23, 2,4-dichloro-6-(3-(4-methoxyphenyl)-1-phenyl-4,5-dihydro-1H-pyrazol-5-yl)phenol]"
2010 ± 130,54 to 56,500 ± 40,"Oc1ccccc1C1CC(c2ccc(Cl)cc2)=NN1c1ccccc1 (centres unmarked) [Compound C2, 2-(3-(4-chlorophenyl)-1-phenyl-4,5-dihydro-1H-pyrazol-5-yl)phenol]"
2030 ± 180,65 to 67,570 ± 50,"COc1ccc(C2=NN(c3ccccc3)C(c3cc(Br)ccc3O)C2)cc1 (centres unmarked) [Compound C17, 4-bromo-2-(3-(4-methoxyphenyl)-1-phenyl-4,5-dihydro-1H-pyrazol-5-yl)phenol]"
2340 ± 170,63 to 65,970 ± 90,"Oc1c(Cl)cc(Cl)cc1C1CC(c2ccc(Cl)c(Cl)c2)=NN1c1ccccc1 (centres unmarked) [Compound C24, 2,4-dichloro-6-(3-(3,4-dichlorophenyl)-1-phenyl-4,5-dihydro-1H-pyrazol-5-yl)phenol]"
8120 ± 750,–,–,"C#Cc1cccc(Nc2ncnc3cc(OCCOC)c(OCCOC)cc23)c1 [Erlotinib, reference compound]"
5370 ± 490,43 to 46,3240 ± 280,"Cc1ccc(C2=NN(c3ccccc3)C(c3cc(Cl)ccc3O)C2)cc1 (centres unmarked) [Compound C10, 4-chloro-2-(1-phenyl-3-(p-tolyl)-4,5-dihydro-1H-pyrazol-5-yl)phenol]"
4550 ± 440,59 to 63,2780 ± 210,"Cc1ccc(C2=NN(c3ccccc3)C(c3cc(Br)ccc3O)C2)cc1 (centres unmarked) [Compound C16, 4-bromo-2-(1-phenyl-3-(p-tolyl)-4,5-dihydro-1H-pyrazol-5-yl)phenol]"
1990 ± 130,77 to 79,500 ± 50,"Oc1ccc(Cl)cc1C1CC(c2ccc(Cl)c(Cl)c2)=NN1c1ccccc1 (centres unmarked) [Compound C12, 4-chloro-2-(3-(3,4-dichlorophenyl)-1-phenyl-4,5-dihydro-1H-pyrazol-5-yl)phenol]"
2090 ± 180,65 to 68,630 ± 60,"Oc1ccccc1C1CC(c2ccc(Br)cc2)=NN1c1ccccc1 (centres unmarked) [Compound C3, 2-(3-(4-bromophenyl)-1-phenyl-4,5-dihydro-1H-pyrazol-5-yl)phenol]"
> 50000,38 to 41,71900 ± 6770,"Oc1ccccc1C1CC(c2ccc(F)cc2)=NN1c1ccccc1 (centres unmarked) [Compound C1, 2-(3-(4-fluorophenyl)-1-phenyl-4,5-dihydro-1H-pyrazol-5-yl)phenol]"
3590 ± 280,42 to 43,2140 ± 190,"Oc1c(Cl)cc(Cl)cc1C1CC(c2ccc(Cl)cc2)=NN1c1ccccc1 (centres unmarked) [Compound C20, 2,4-dichloro-6-(3-(4-chlorophenyl)-1-phenyl-4,5-dihydro-1H-pyrazol-5-yl)phenol]"
1880 ± 150,95 to 98,340 ± 20,"Oc1ccc(Br)cc1C1CC(c2ccc(Cl)c(Cl)c2)=NN1c1ccccc1 (centres unmarked) [Compound C18, 4-bromo-2-(3-(3,4-dichlorophenyl)-1-phenyl-4,5-dihydro-1H-pyrazol-5-yl)phenol]"
23900 ± 1990,29 to 31,7370 ± 650,"Cc1ccc(C2=NN(c3ccccc3)C(c3cc(Cl)cc(Cl)c3O)C2)cc1 (centres unmarked) [Compound C22, 2,4-dichloro-6-(1-phenyl-3-(p-tolyl)-4,5-dihydro-1H-pyrazol-5-yl)phenol]"
